The results in this text go back to US11505548B2, “Heterocyclic compounds and their use for treatment of helminthic infections and diseases” (Celgene Corporation, priority 2019, dated 2022).

Where two headings read alike, the source gives them in different places.

In this assay the test system is Onchocerca gutturosa Adult Male Worms. The experiment in a line: Onchocerciasis in vitro screening model, worm motility score. Format: cell-based. The conditions noted are these: read-out: O. gutturosa activity level (IC50 or MED).
Setting [1] is: in vitro, Onchocerca gutturosa adult male worms, class A/B/C.
The mark [2] stands for this setting: Onchocerca gutturosa, Table 1 O. gutturosa, levels A/B/C, motility or MTT readout not specified.

`CC(=O)N(C)c1cccnc1Nc1nc(-c2cc3c(cn2)N(C)CC3)ns1` [Compound 202, N-methyl-N-(2-(3-(1-methyl-2,3-dihydro-1H-pyrrolo[2,3-c]pyridin-5-yl)-1,2,4-thiadiazol-5-ylamino)pyridin-3-yl)acetamide]: the IC50 under setting [1] lay in the range of 200 to 500 nM.

With `CC(C)COc1ccc(-c2nsc(Nc3ncccc3N(C)C)n2)nc1` [Compound 149, N2-(3-(5-isobutoxy-pyridin-2-yl)-1,2,4-thiadiazol-5-yl)-N3,N3-dimethyl-pyridine-2,3-diamine], the IC50 under setting [2] was less than 200 nM.

As to `CC(C)Oc1ccc(-c2nsc(Nc3cc(C(F)(F)F)c(C(C)C)cn3)n2)nc1` [Compound 119, 3-(5-isopropoxy-pyridin-2-yl)-N-(5-isopropyl-4-(trifluoromethyl)pyridin-2-yl)-1,2,4-thiadiazol-5-amine], the IC50 under setting [2] is less than 200 nM.

Regarding `CC(C)Oc1ccc(-c2noc(Nc3ncccc3N(C)C)n2)nc1` [Compound 133, N2-(3-(5-is-opropoxy-pyridin-2-yl)-1,2,4-oxadiazol-5-yl)-N3,N3-dimethyl-pyridine-2,3-diamine], under setting [2], the half-maximal inhibitory concentration (IC50) was in the range of 500 to 5000 nM.

For `c1ccc(-c2nsc(Nc3ccc(OC4CCOCC4)cn3)n2)nc1` [Cmpd 9, 3-(pyridin-2-yl)-N-(5-(tetrahydro-2H-pyran-4-yloxy)pyridin-2-yl)-1,2,4-thiadiazol-5-amine], the IC50 under setting [2] fell in the range of 500 to 5000 nM.

On to `CC(C)Oc1cnc(-c2nsc(Nc3ncccc3C(C)C)n2)cc1C(=O)N(C)C` [Compound 193, 5-isopropoxy-2-(5-(3-isopropylpyridin-2-ylamino)-1,2,4-thiadiazol-3-yl)-N,N-dimethy-lisonicotinamide], for which, under setting [2], the half-maximal inhibitory concentration (IC50) lay within 200 to 500 nM.

Turning to `CN(C)C(=O)c1cccnc1Nc1nc(-c2cc3c(cn2)N(C)CC3)ns1` [Compound 229, N,N-dimethyl-2-(3-(1-methyl-2,3-dihydro-1H-pyrrolo[2,3-c]pyridin-5-yl)-1,2,4-thiadiazol-5-ylamino) nicotinamide], the 50% inhibitory concentration (IC50) under setting [1] fell in the range of 500 to 5000 nM.

As to `CC(=O)N(C)c1cc(C(F)(F)F)cnc1Nc1nc(-c2cc3c(cn2)CCN3C(C)C)ns1` [Compound 304, N-(2-(3-(1-isopropyl-2,3-dihydro-1H-pyrrolo[3,2-c]pyridin-6-yl)-1,2,4-thiadiazol-5-ylamino)-5-(trifluoromethyl)pyridin-3-yl)-N-methylacetamide], the IC50 under setting [1] was less than 200 nM.

Consider `Cc1cccnc1Nc1nc(-c2ccc(C(=O)N3CCOCC3)cn2)ns1` [Compound 58, (6-(5-(3-methyl-pyridin-2-ylamino)-1,2,4-thiadiazol-3-yl)pyridin-3-yl)(morpholino) methanone], for which the IC50 under setting [2] was in the range of 200 to 500 nM.

For `Cc1cccnc1Nc1nc(-c2ccc(OC3CC4(CCN(C)C4)C3)cn2)ns1` (centres unmarked) [Compound 77, 3-(5-(6-methyl-6-azaspiro [3.4]octan-2-yloxy)pyridin-2-yl)-N-(3-methylpyridin-2-yl)-1,2,4-thiadiazol-5-amine], under setting [2], the IC50 lay within 500 to 5000 nM.

For `CC(=O)N(C)c1cccnc1Nc1nc(-c2cc(C#N)c(OC(C)C)cn2)ns1` [Compound 226, N-(2-(3-(4-cyano-5-isopropoxy-pyridin-2-yl)-1,2,4-thiadiazol-5-ylamino)pyridin-3-yl)-N-methyl-acetamide], the IC50 under setting [1] lay in the range of 500 to 5000 nM.

With `Cc1cc(C(F)(F)F)cnc1Nc1nc(-c2cc3c(cn2)N(C)CC3)ns1` [Compound 324, 3-(1-methyl-2,3-dihydro-1H-pyrrolo[2,3-c]pyridin-5-yl)-N-(3-methyl-5-(trifluoromethyl)pyridin-2-yl)-1,2,4-thiadiazol-5-amine], under setting [1], the IC50 is less than 200 nM.

Take `CCN(c1nc(-c2ccc(OC(C)C)cn2)ns1)c1ncccc1C` [Compound 131, N-ethyl-3-(5-isopropoxy-pyridin-2-yl)-N-(3-methyl-pyridin-2-yl)-1,2,4-thiadiazol-5-amine]: under setting [2], the IC50 is less than 200 nM.

As to `CC(C)c1ccnc(-c2nsc(Nc3ncccc3C(F)(F)F)n2)c1` [Compound 67, 3-(4-isopropyl-pyridin-2-yl)-N-(3-(trifluoromethyl)pyridin-2-yl)-1,2,4-thiadiazol-5-amine], the IC50 under setting [2] is less than 200 nM.

As for `CC(C)c1cccnc1Nc1nc(-c2ccc(OC3CC3)cn2)ns1` [Compound 74, 3-(5-cyclopropoxy-pyridin-2-yl)-N-(3-isopropylpyridin-2-yl)-1,2,4-thiadiazol-5-amine], the 50% inhibitory concentration (IC50) under setting [2] is less than 200 nM.

Take `Cc1ccnc(Nc2nnc(-c3ncccc3C)o2)c1` [Compound 236, 5-(3-methyl-pyridin-2-yl)-N-(4-methy-lpyridin-2-yl)-1,3,4-oxadiazol-2-amine]: the IC50 under setting [1] is 500 to 5000 nM.

Regarding `CN1CCC(Oc2ccc(-c3nsc(Nc4cc(C(F)(F)F)ccn4)n3)nc2)CC1` [Compound 34, 3-(5-(1-methyl-piperidin-4-yloxy)pyridin-2-yl)-N-(4-(trifluoro-methyl)pyridin-2-yl)-1,2,4-thiadiazol-5-amine], the IC50 under setting [2] lay within 500 to 5000 nM.

Turning to `O=C(CC(F)(F)F)N1CCN(c2ccc(Nc3nc(-c4ccc(OC5CC5)cn4)ns3)nc2)CC1` [Compound 113, 1-(4-(6-(3-(5-cycloprop-oxypyridin-2-yl)-1,2,4-thiadiazol-5-ylamino)pyridin-3-yl)piperazin-1-yl)-3,3,3-trifluoro-propan-1-one], the IC50 under setting [2] lay within 500 to 5000 nM.

With `CC(C)Oc1cnc(-c2nsc(Nc3ncccc3S(=O)(=O)N(C)C)n2)cc1C(F)(F)F` [Compound 320, 2-(3-(5-isopropoxy-4-(trifluoromethyl)pyridin-2-yl)-1,2,4-thiadiazol-5-ylamino)-N,N-dimethyl-pyridine-3-sulfonamide], the IC50 under setting [1] was in the range of 500 to 5000 nM.

`COc1cccnc1Nc1nc(-c2ccc(OC3CC3)cn2)ns1` [Compound 80, 3-(5-cycloprop-oxypyridin-2-yl)-N-(3-methoxypyridin-2-yl)-1,2,4-thiadiazol-5-amine]: the IC50 under setting [2] lay within 200 to 500 nM.

Take `CC(=O)N(C)c1cc(C(F)(F)F)cnc1Nc1nc(-c2ccccn2)ns1` [Compound 325, N-methyl-N-(2-(3-(pyridin-2-yl)-1,2,4-thiadiazol-5-ylamino)-5-(trifluoromethyl)pyridin-3-yl)acetamide]: under setting [1], the IC50 was less than 200 nM.

Take `COc1cccnc1Nc1nc(-c2cc(C)ccn2)ns1` [Compound 24, N-(3-methoxy-pyridin-2-yl)-3-(4-methyl-pyridin-2-yl)-1,2,4-thiadiazol-5-amine]: the IC50 under setting [2] is less than 200 nM.

With `COc1cccnc1Nc1nc(-c2ccc(OC3CCN(C4CC4)CC3(F)F)cn2)ns1` (centres unmarked) [Compound 129, 3-(5-(1-cyclopropyl-3,3-difluoro-piperidin-4-yloxy)pyridin-2-yl)-N-(3-methoxypyridin-2-yl)-1,2,4-thiadiazol-5-amine], the IC50 under setting [2] fell in the range of 500 to 5000 nM.

For the compound `Cc1cccnc1-c1nnc(Nc2ccccn2)o1` [Compound 32, 5-(3-methyl-pyridin-2-yl)-N-(pyridin-2-yl)-1,3,4-oxadiazol-2-amine], under setting [2], the half-inhibitory concentration (IC50) is 500 to 5000 nM.

For `COc1ccc(-c2nsc(Nc3ccc(OC(C)C)cn3)n2)nc1` [Compound 215, N-(5-isoprop-oxypyridin-2-yl)-3-(5-methoxy-pyridin-2-yl)-1,2,4-thiadiazol-5-amine], the IC50 under setting [1] fell in the range of 500 to 5000 nM.

As for `CC(=O)N(C)c1cnc(-c2nsc(Nc3ncccc3C)n2)cc1C` [Compound 270, N-methyl-N-(4-methyl-6-(5-(3-methylpyridin-2-ylamino)-1,2,4-thiadiazol-3-yl)pyridin-3-yl)acetamide], the IC50 under setting [1] fell in the range of 500 to 5000 nM.
